# Test results published in patent publication US20220081409A1, “PDE9 INHIBITOR AND USE THEREOF” (NANJING TRANSTHERA BIOSCIENCES CO., LTD., priority 2019, published 2022).
# pIC50: −log10 of the molar value.
# How the values were obtained:
# PDE9A2 enzyme = target: T1, PDE9A2 enzyme (Homo sapiens, UniProt O76083); experiment: PDE9 enzymatic evaluation; format: biochemical; details: fluorescence reading 480 nm/535 nm
# T1 construct: purchased BPS 60090
# Method: Experimental Example 1: PDE9 Enzymatic Evaluation
# Test samples: the compounds disclosed herein, prepared according to the corresponding examples of the present invention.
# Preparation of the compounds: Compounds were formulated into 10 mM compound stock solution in DMSO for long term storage. The obtained compound stock solution was 100-fold diluted with DMSO to give 100 μM compound mother liquor, which was 3-fold diluted with DMSO to give 8-10 concentration gradients of diluted compound mother liquor (100×).
# Incubation with compound: Diluted compound mother liquor was pipetted into a 384-well plate using an ultramicro-liquid pipetting system (Echo); 200 nL of the diluted compound mother liquor and 10 μL of PDE9A2 enzyme solution were added to each compound well; after centrifugation at 1000 rpm for 1 min, the mixtures were incubated at room temperature for 15 min. Subsequently, 10 μL of the substrate mixture was added, and after centrifugation at 1000 rpm for 1 min, the resulting mixture was incubated at room temperature with oscillating for 30 min. Finally, stop solution was added to end the reaction, and the resulting reaction system was incubated at room temperature with oscillating for 60 min. In the maximum reading well (Max), the compound was replaced by solvent; in the minimum reading well (Min), the compound and the enzyme solution were replaced by solvent.
# Detection: the fluorescence readings (F) at 480 nm/535 nm were detected using a microplate reader.
# Calculation: The inhibition rate was calculated according to the following formula and IC50 was fitted using GraphPad Prism 5.0: […]
# [1] = Liver microsomal stability in rat liver microsomes; format: in vitro ADME; details: 0.5 mg protein/mL, 1 μM compound, 37° C.
# Method: Experimental Example 2: Evaluation of Liver Microsomal Stability of Compounds Disclosed Herein
# Test samples: the compounds disclosed herein and the compound I-8 of international patent application WO2017019723A1 (prepared by referring to the examples for synthesis in WO2017019723A1) having the following structural formula: […]
# An appropriate amount of the compound was precisely weighed out and dissolved in DMSO to prepare a 5.0 mM stock solution. The 5.0 mM stock solution was diluted to 1.0 mM with DMSO, and then diluted with water to 10 μM compound working solution for later use (DMSO content in the reaction system: 0.1% v/v).
# • (1) The liver microsomes (20 mg protein/mL) were taken out from a −80° C. refrigerator, pre-incubated on a 37° C. water bath thermostatic oscillator for 3 min, and thawed for use. • (2) A mixed solution of the incubation system (without compound and D-NADPH) was prepared according to “composition of the experimental incubation system” described above, and pre-incubated on a 37° C. water bath thermostatic oscillator for 2 min. • (3) Control group (without D-NADPH): 30 μL of water and 30 μL of compound working solution (10 μM) were added to 240 μL of the mixed solution of the incubation system in step (2), and the mixture was vortexed for 30 s and mixed well; the total volume of the mixture was 300 μL; the sample was duplicated. The mixture was placed on a 37° C. water bath thermostatic oscillator for incubation, and timing was started; the sampling was conducted at 0 min and 60 min. • (4) Sample group: 70 μL of […] solution (10 mM) and 70 μL of compound working solution (10 μM) were added to 560 μL of the mixed solution in step (2), and the total volume of the mixture was 700 μL; the mixture was vortexed for 30 s and mixed well; the sample was duplicated. The mixture was placed on a 37° C. water bath thermostatic oscillator for incubation, and timing was started; the sampling was conducted at 0 min, 5 min, 10 min, 20 min, 30 min and 60 min. • (5) The mixture was vortexed for 3 min, and centrifuged at 4000 rpm for 10 min. • (6) 50 μL of the supernatant was taken and added to 150 μL of water, and the resulting mixture was vortexed and mixed well before LC/MS/MS analysis.
# The half-life (t1/2) and clearance (Cl) were calculated using the following first-order kinetic formula:
# Vd=1/protein content in liver microsomes
# Note: k denotes the slope of the logarithm of the remaining amount of a compound vs. time, Vd denotes apparent volume of distribution, and C0 denotes compound concentration at 0 h.
# Experiment on Stability of the Compounds Disclosed Herein in Rat Liver Microsomes
# human PDE9 [2] = target: T2, human PDE9 (Homo sapiens, UniProt O76083); details: background statement; cited from earlier work
# human PDE9 [3] = target: T2, human PDE9; details: substrate of PDE9, background statement; read-out: binding constant (Km); cited from earlier work
# T2 sequence (O76083 whole entry): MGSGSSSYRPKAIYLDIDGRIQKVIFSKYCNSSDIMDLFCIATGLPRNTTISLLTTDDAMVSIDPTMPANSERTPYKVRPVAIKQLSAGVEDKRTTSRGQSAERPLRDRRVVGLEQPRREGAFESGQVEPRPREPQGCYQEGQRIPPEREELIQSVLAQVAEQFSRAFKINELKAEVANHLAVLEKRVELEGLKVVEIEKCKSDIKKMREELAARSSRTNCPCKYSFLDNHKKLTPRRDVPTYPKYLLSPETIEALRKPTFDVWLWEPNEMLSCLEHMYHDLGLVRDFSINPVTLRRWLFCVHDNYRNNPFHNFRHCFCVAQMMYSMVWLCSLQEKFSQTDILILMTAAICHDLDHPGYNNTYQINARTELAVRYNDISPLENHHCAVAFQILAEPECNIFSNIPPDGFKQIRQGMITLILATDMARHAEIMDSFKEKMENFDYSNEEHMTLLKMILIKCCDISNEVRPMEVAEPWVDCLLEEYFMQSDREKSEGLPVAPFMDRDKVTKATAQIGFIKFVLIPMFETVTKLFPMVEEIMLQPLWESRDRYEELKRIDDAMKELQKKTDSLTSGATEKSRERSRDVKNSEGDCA
# T1 sequence (O76083 1-533 isoform O76083-2): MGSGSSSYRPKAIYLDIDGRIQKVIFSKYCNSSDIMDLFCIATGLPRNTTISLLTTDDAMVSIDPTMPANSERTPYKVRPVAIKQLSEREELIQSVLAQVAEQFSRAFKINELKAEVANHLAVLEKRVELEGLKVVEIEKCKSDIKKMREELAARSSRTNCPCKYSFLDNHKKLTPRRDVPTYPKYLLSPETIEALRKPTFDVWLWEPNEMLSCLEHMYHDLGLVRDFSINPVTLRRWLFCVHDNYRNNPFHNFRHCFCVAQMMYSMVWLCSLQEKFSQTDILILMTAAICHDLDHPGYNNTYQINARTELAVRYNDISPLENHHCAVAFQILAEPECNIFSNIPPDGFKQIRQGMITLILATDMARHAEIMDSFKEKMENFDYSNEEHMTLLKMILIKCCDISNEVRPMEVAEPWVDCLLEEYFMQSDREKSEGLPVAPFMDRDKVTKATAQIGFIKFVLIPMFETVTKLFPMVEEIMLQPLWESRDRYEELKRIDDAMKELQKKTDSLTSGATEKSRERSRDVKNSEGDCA
Structure (SMILES),pIC50 (PDE9A2 enzyme),half-life at 1 μM [1] [h],microsomal CLint at 1 μM [1] [µL/min/mg],inhibitory activity against PDE9 (human PDE9 [2]),also measured
"COC1(C)CCN(c2c(C#N)c(=O)[nH]c3ccc(C(C)C)cc23)CC1 [Compound 179, 6-isopropyl-4-(4-methoxy-4-methylpiperidin-1-yl)-2-oxo-1,2-dihydroquinoline-3-carbonitrile]",7.74,–,–,–,–
"COCCOc1ccc2[nH]c(=O)c(C#N)c(N3CCC(C)(OC)CC3)c2c1 [Compound 145, 4-(4-methoxy-4-methylpiperidin-1-yl)-6-(2-methoxyethoxy)-2-oxo-1,2-dihydroquinoline-3-carbonitrile]",7.92,2.13,10.8,–,–
"COC1(C)CCN(c2c(C#N)c(=O)[nH]c3ccc(C(C)(C)O)cc23)CC1 [Compound 109, 6-(2-hydroxypropan-2-yl)-4-(4-methoxy-4-methylpiperidin-1-yl)-2-oxo-1,2-dihydroquinoline-3-carbonitrile]",7.82,7.7,3,–,–
CC(C)Cn1c(=O)n(C)c(=O)c2[nH]cnc21 [IBMX],–,–,–,no inhibitory activity or low inhibitory activity,–
"COC1(C)CCN(c2c(C#N)c(=O)[nH]c3ccc(Br)cc23)CC1 [Compound 180, 6-bromo-4-(4-methoxy-4-methylpiperidin-1-yl)-2-oxo-1,2-dihydroquinoline-3-carbonitrile]",8.10,0.955,24.2,–,–
CC(=O)Nc1ccc(-c2c[nH]c(=O)cn2)cc1 [SKF94120],–,–,–,no inhibitory activity or low inhibitory activity,–
"COC1(C)CCN(c2c(C#N)c(=O)[nH]c3ccc(C)cc23)CC1 [Compound 158, 4-(4-methoxy-4-methylpiperidin-1-yl)-6-methyl-2-oxo-1,2-dihydroquinoline-3-carbonitrile]",7.92,–,–,–,–
"N#Cc1c(N2CCCCCC2)c2ccccc2[nH]c1=O [Compound I-8, reference compound]",–,0.792,29.2,–,–
"CCc1ccc2[nH]c(=O)c(C#N)c(N3CCC(C)(OC)CC3)c2c1 [Compound 107, 6-ethyl-4-(4-methoxy-4-methylpiperidin-1-yl)-2-oxo-1,2-dihydroquinoline-3-carbonitrile]",8.10,–,–,–,–
"Nc1nc2c(ncn2[C@@H]2O[C@@H]3COP(=O)(O)O[C@H]3[C@H]2O)c(=O)[nH]1 [cGMP, cyclic guanosine monophosphate]",–,–,–,–,Km (human PDE9 [3]): 0.17 µM
OCCN(CCO)c1nc(N2CCCCC2)c2nc(N(CCO)CCO)nc(N3CCCCC3)c2n1 [dipyridamole],–,–,–,no inhibitory activity or low inhibitory activity,–
"CNC(=O)c1ccc2[nH]c(=O)c(C#N)c(N3CCC4(CC3)CC4)c2c1 [Compound 96, 3-cyano-N-methyl-2-oxo-4-(6-azaspiro[2.5]octan-6-yl)-1,2-dihydroquinoline-6-carboxamide]",8.30,3.22,7.2,–,–
"COC1(C)CCN(c2c(C#N)c(=O)[nH]c3ccc(C(O)C4CC4)cc23)CC1 (centres unmarked) [Compound 130, 6-(cyclopropyl(hydroxy)methyl)-4-(4-methoxy-4-methylpiperidin-1-yl)-2-oxo-1,2-dihydroquinoline-3-carbonitrile]",8.70,2.82,8.2,–,–
CCOC(=O)C1=C[C@]2(CC)CCCN3CCc4c(n1c1ccccc41)[C@@H]32 [vinpocetine],–,–,–,no inhibitory activity or low inhibitory activity,–
COc1ccc(C2CNC(=O)C2)cc1OC1CCCC1 (centres unmarked) [rolipram],–,–,–,no inhibitory activity or low inhibitory activity,–
